The source of these data is patent US4705854A, “Phenothiazine compounds” (priority 1984, dated 1987).

Structures are written as SMILES. Read-outs that look alike come from different tables or passages of the source.

The target of series [1] is T1, longitudinal muscle from the intact ileum of guinea-pigs (histamine) (Cavia porcellus, UniProt P31389).
T1 construct: The longitudinal muscle was isolated from the intact ileum of guinea-pigs; from tissue; host or cells: longitudinal muscle of guinea-pig ileum (Hartley, male)
T1 sequence (P31389 whole entry): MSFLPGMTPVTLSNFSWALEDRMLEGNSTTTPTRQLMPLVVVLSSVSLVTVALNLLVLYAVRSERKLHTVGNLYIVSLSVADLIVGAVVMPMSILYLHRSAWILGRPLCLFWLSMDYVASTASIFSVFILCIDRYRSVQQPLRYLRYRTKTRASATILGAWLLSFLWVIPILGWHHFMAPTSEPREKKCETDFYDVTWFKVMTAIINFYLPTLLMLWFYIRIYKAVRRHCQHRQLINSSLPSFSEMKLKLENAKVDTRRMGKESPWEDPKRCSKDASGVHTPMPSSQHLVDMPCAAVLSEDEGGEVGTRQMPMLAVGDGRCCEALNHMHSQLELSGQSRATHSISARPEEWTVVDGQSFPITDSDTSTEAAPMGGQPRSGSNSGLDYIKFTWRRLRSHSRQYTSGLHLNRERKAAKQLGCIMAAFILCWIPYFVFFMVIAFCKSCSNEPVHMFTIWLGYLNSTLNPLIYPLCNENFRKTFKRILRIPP
Briefly: In vitro antihistamine activity: shift of histamine concentration-response curves (Schild plot), isolated guinea-pig ileum longitudinal muscle. Particulars: vs histamine, one hour incubation with test compound, 60 min. The series is classed as cell-based. The procedure: A. In vitro antihistamine activity: The longitudinal muscle was isolated from the intact ileum of guinea-pigs (Hartley, male 250-400 g) and placed in an organ bath under 300 mg tension. After one hour of equilibration, cumulative concentration-response curves (Van Rossum, J. M., Arch. Int. Pharmacodyn. Ther. 143, 299-330, 1963) to histamine were obtained. Following washing, the tissues were incubated for one hour with the test compound and then a second histamine concentration-response curve was run. Shifts to the right of the agonist concentration-response curve produced by the antagonists were used to construct Schild plots (Arunlakshana, O. and Schild, H. O., Br. J. Pharmacol. 14, 48-58, 1959). Regression of Log (dr-l) on Log [B], where dr is an equiactive response in the presence and absence of antagonist and [B] is the molar concentration of antagonist, allowed an estimate of pA2, i.e. the negative log of the concentration of antagonist which shifts the control histamine concentration response curve 2X to the right.

The conditions of series [2]: cited from earlier work.
The conditions of series [3]: background statement on promethazine; cited from earlier work.

`CN(C)CCCN1c2ccccc2Sc2ccc(S(=O)(=O)O)cc21` [Example 2, 10-(3'-N,N-Dimethylaminopropyl)phenothiazine-2-sulphonic acid hemihydrate]: the pA2 in series [1] is 7.8. As to `CC(CN1c2ccccc2Sc2ccccc21)N(C)C` (centres unmarked) [promethazine, 10-(2-dimethylaminopropyl)phenothiazine], the sedation or drowsiness result in series [2] (in some patients, antihistamines now in use) was “cause sedation or drowsiness in some patients”. Also, the anticholinergic activity result in series [3] is given as “potent anticholinergic activity”. In the case of `COc1ccc(CN(CCN(C)C)c2ccccn2)cc1` [pyrilamine], the sedation or drowsiness result in series [2] (in vivo) is “cause sedation or drowsiness in some patients”. On to `Cc1ccc(/C(=C\CN2CCCC2)c2ccccn2)cc1` [triprolidine], for which, in series [2] (in vivo), the sedation or drowsiness result is listed as “cause sedation or drowsiness in some patients”.

For orientation: pA2 means the negative logarithm of the molar antagonist concentration that doubles the agonist concentration needed for the same response.
